Data on 13 compounds can be found in patent US4686220A, “Substituted 2-[b-substituted-amino)-ethylamino]-1,4-naphthalenediones for treating asthma, allergic diseases and inflammation in warm-blooded animals” (American Cyanamid Company, priority 1985, dated 1987).

Assay [1] deals with Immunologically Stimulated Human Basophils. Nature of the assay: Inhibition of Histamine Release from Immunologically Stimulated Human Basophils. The assay is classed as cell-based. As to conditions: anti-IgE or antigen stimulated, 60 min, 37° C., read-out: ED50 (concentration which causes 50% inhibition of histamine release). The method, then:
The novel compounds of this invention have been tested by the procedure of Lichtenstein, L. M. and Osler, A. G., J. Exp. Med., 120, 507-530 (1964), which evaluates the ability of compounds to inhibit mediator (histamine) release from immunologically stimulated human basophils. 10X Concentrated Tris Buffer Dissolve 140.3 g of sodium chloride, 7.45 g of potassium chloride and 74.5 g of Trizma-Tris Pre-Set, Reagent Grade, pH 7.6, at 25° C. (Sigma Chemical Co.) in sufficient water to give a final volume of 2 liters. Human Albumin (Sigma Chemical Co.) (30 mg/ml) Calcium and Magnesium Stocks Made to 0.075M and 0.5M respectively, with calcium chloride dihydrate and magnesium chloride hexahydrate. Tris-A Buffer A 10 ml portion of 10X Tris Buffer and 1.0 ml of human albumin are diluted to 100 ml with water. Tris ACM Buffer A 10 ml portion of 10X Tris Buffer, 1.0 ml of human albumin, 0.8 ml of calcium stock and 0.2 ml of magnesium stock are diluted to 100 ml with water. Rabbit Antihuman IgE Behring Diagnostics (Generally used at 10 μg protein/ml final concentration.) House Dust Mite Extract (Dermatophagoides Farinae) Strength 1:100 (w:v) allergenic extract, Hollister-Stier Labs. Generally this is diluted 1:1000 to 1:10,000 (considering the vial as stock). Other Allergens Intradermal solutions or intramuscular preparations for hyposensitization, Hollister-Stier Labs. The final concentration used is on the order of 1 PNU/ml. Separation of Leukocytes from Human Blood and Challenge Eighty milliliters of blood is withdrawn from subjects with known histamine release to anti-IgE, ragweed antigen or other specific allergen, using four 20 ml heparinized tubes. This 80 ml of blood is mixed with 20 ml of saline containing 0.6 g of dextrose and 1.2 g of dextran. The blood is allowed to sediment at room temperature in two 50 ml polycarbonate centrifuge tubes until a sharp interface develops between the red cells and plasma (60-90 minutes). The plasma (top) layer from each tube is withdrawn by pipet and transferred to respective 50 ml polycarbonate tubes. The plasma is centrifuged for 8 minutes at 110×G at 4° C. The supernatant is carefully poured off as completely as possible and the cell button is resuspended in 2-3 ml of Tris-A buffer using a siliconized Pasteur pipet. The resuspension is accomplished by drawing the liquid gently in an out of the pipet, with the tip below the liquid, until an even suspension of cells is obtained. Sufficient Tris-A buffer is then added to bring the volume in the tube to about 45 ml and the tube is centrifuged at 110×G for 8 minutes at 4° C. The supernatant is poured off and the cell button is resuspended and centrifuged as described above. The supernatant is poured off and the cell button suspended in 2-3 ml of Tris-ACM buffer to make the final volume sufficient to allow addition to the reaction tubes. Reaction tubes containing anti-IgE or antigens, either alone or with test compound in a total volume of 0.2 ml are prepared and placed in a 37° C. bath. The cells are warmed to 37° C. and frequently swirled to ensure an even suspension, while 1.0 ml aliquots are added to each reaction tube. The tubes are then incubated for 60 minutes at 37° C., vortexing the tubes gently every 15 minutes to keep the cells evenly suspended. When the reaction is complete, the tubes are centrifuged at 4° C. for 10 minutes at 1500 rpm to sediment the cells. One ml aliquots of supernatant are transferred to 12 mm by 75 mm polyethylene tubes and 0.2 ml of 8% perchloric acid is added to each tube. Blanks and totals are included in each test. The blanks have cells and all reagents except antigen or anti-IgE. The totals contain 0.24 ml of 8% perchloric acid, one ml of cells and 0.2 ml of buffer. All samples are then centrifuged to remove the precipitate protein. Assay of Released Histamine by the Automated Fluorometric Method This automated method has been described by Siraganian, R. P., in Anal. Biochem., 57, 383 (1974) and J. Immunol. […]

The next assay deals with T1, Neutrophil Lipoxygenase (Cavia porcellus, UniProt A0A286X958).
T1 construct: endogenous in cells; host or cells: guinea pig peritoneal neutrophils
T1 sequence (A0A286X958 1-674): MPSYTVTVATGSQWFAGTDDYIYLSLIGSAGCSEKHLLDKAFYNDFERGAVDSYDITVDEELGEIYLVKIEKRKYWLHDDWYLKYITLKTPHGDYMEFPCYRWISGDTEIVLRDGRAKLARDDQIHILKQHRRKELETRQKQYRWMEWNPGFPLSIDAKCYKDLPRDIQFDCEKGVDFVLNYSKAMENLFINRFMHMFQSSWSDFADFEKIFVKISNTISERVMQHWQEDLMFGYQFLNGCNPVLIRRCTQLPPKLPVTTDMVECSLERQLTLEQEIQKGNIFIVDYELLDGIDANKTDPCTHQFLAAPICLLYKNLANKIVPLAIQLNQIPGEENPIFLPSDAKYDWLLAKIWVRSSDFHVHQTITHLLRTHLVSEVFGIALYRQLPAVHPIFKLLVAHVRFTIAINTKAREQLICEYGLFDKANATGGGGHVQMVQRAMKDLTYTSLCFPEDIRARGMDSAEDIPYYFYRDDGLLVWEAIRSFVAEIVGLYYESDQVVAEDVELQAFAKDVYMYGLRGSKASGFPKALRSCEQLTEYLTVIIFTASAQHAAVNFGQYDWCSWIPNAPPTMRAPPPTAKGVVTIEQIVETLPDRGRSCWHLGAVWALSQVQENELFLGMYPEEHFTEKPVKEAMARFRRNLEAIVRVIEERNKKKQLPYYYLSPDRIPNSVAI
Nature of the assay: Inhibition of Neutrophil Lipoxygenase from Immunologically Stimulated Guinea Pig Neutrophiles (LTB4 and 5-HETE). Type of assay: cell-based. The settings on record: 10 μg/ml, 100 μM arachidonic acid and 20 μM A23187, the lower the percentage, the more active. The method, then:
In this assay 3×10^7 peritoneal neutrophils derived from guinea pigs were incubated at 37° C. in Dulbeccos buffer containing 50 mM tris buffer (pH 7.4). Five minutes before the addition of 100 μM arachidonic acid and 20 μM calcium ionophore (A23187), control vehicle or the test compounds were added to the neutrophils at a concentration of 10 μg/ml. Three minutes after the addition of arachidonic acid and calcium ionophore the total lipid was partitioned into chloroform after adjusting the pH to 3 with citric acid and the addition of equal parts of methanol and chloroform. The 5-HETE and LTB4 were resolved by HPLC using a 5 μM, 4×25 cm octadecyl silica column (IBM Instruments) with 70-80% methanol in water adjusted to pH 3.0 with acetic acid. As the mobile phase was pumped at 1.0 ml/minute, LTB4 and 5-HETE were detected by absorbance at 270 and 236 nm, respectively. LTB4 and 5-HETE were quantitated by comparison with the control and the results were expressed as a percent of control.

Structures can show the parent of a compound that is named as a salt. Where two headings read alike, the source gives them in different places.

As for `CCOC(=O)N1CCN(C2=C(Cl)C(=O)c3ccccc3C2=O)CC1` [Example 1, 4-(3-Chloro-1,4-dioxo-2-naphthyl)-1-piperazinecarboxylic acid, ethyl ester], the IC50 in assay [1] (ethyl ester) was 5.5 µM. For the same compound, at Neutrophil Lipoxygenase, the “5-HETE, % of Control” value is 0 % of Control and the “LTB4, % of Control” value was 0 % of Control.

For the compound `O=C1C(Cl)=C(N2CCN(C(=O)c3ccccc3Cl)CC2)C(=O)c2ccccc21` [Example 34, 1-(2-chlorobenzoyl)-4-(3-chloro-1,4-dihydro-1,4-dioxo-2-naphthalenyl)piperazine], the IC50 in assay [1] (Homo sapiens, 1 h) is 1.8 µM.

For `O=C1C(Cl)=C(N2CCN(c3ccccn3)CC2)C(=O)c2ccccc21` [Example 8, 2-chloro-3-[4-(2-pyridinyl)-1-piperazinyl]-1,4-naphthalenedione, hydrochloride], the IC50 in assay [1] (Homo sapiens, 1 h) was 4.6 µM. Also, the remaining activity at 10 µg/mL came out at 1.3% on Neutrophil Lipoxygenase (read-out: 5-HETE, % of Control) and 6.1% at Neutrophil Lipoxygenase (read-out: LTB4, % of Control).

For `CC(C)COC(=O)N1CCN(C2=C(Cl)C(=O)c3ccccc3C2=O)CC1` [Example 33, 4-(3-Chloro-1,4-dihydro-1,4-dioxo-2-naphthalenyl)-1-piperazinecarboxylic acid, 2-methylpropyl ester], the IC50 in assay [1] (Homo sapiens, 1 h) came to 16.5 µM. Besides, the remaining activity at 10 µg/mL is 31.6% at Neutrophil Lipoxygenase (read-out: 5-HETE, % of Control) and 27.4% on Neutrophil Lipoxygenase (read-out: LTB4, % of Control).

In the case of `O=C1C(Cl)=C(N2CCN(CC(=O)N3CCOCC3)CC2)C(=O)c2ccccc21` [Example 6, 4-[[4-(3-chloro-1,4-dihydro-1,4-dioxo-2-naphthalenyl)-1-piperazinyl]acetyl]morpholine], in assay [1] (Homo sapiens, 1 h), the IC50 amounted to 20.6 µM.

On to `CN(CCNCc1nc2ccccc2s1)C1=C(Cl)C(=O)c2ccccc2C1=O` [Example 9, 2-[[2-(2-benzothiazolylmethylamino)ethyl]methylamino]-3-chloro-1,4-naphthalenedione], for which the IC50 in assay [1] (Homo sapiens, 1 h) came out at 6.4 µM. In addition, the remaining activity at 10 µg/mL at Neutrophil Lipoxygenase (read-out: 5-HETE, % of Control) turned out to be 0.2%; on Neutrophil Lipoxygenase (read-out: LTB4, % of Control) it was 0%.

For the compound `O=C1C(Cl)=C(N2CCN(c3nc4ccccc4s3)CC2)C(=O)c2ccccc21` [Example 17, 2-[4-(2-benzothiazolyl)-1-piperazinyl]-3-chloro-1,4-naphthalenedione, hydrochloride], the IC50 in assay [1] (Homo sapiens, 1 h) amounted to 5.4 µM. The remaining activity at 10 µg/mL on Neutrophil Lipoxygenase (read-out: 5-HETE, % of Control) is 23.1%; on Neutrophil Lipoxygenase (read-out: LTB4, % of Control), 32.6%.

`Cl.O=C1C(Cl)=C(N2CCN(Cc3ccccc3)CC2)C(=O)c2ccccc21` [Example 15, 2-chloro-3-[4-(phenylmethyl)-1-piperazinyl]-1,4-naphthalenedione, hydrochloride]: in assay [1] (hydrochloride), the IC50 worked out at 13.4 µM. Also, on Neutrophil Lipoxygenase, the “5-HETE, % of Control” value is reported as 35.6 % of Control and the “LTB4, % of Control” value is listed as 28.3 % of Control.

Regarding `CCOC(=O)N1CCN(C2=C(Cl)C(=O)c3ccccc3C2=O)CC1.Cl` [Example 16, 4-(3-chloro-1,4-dihydro-1,4-dioxo-2-naphthalenyl)-1-piperazinecarboxylic acid, ethyl ester, hydrochloride], the IC50 in assay [1] (e, hydrochloride) is 1.5 µM. Also, on Neutrophil Lipoxygenase, the “5-HETE, % of Control” value is given as 6.9 % of Control and the “LTB4, % of Control” value is 9.3 % of Control.

In the case of `O=C1C(Cl)=C(N2CCN(Cc3ccccc3)CC2)C(=O)c2ccccc21` [Example 5, 2-chloro-3-[4-(phenylmethyl)-1-piperazinyl]-1,4-naphthalenedione], the IC50 in assay [1] (Homo sapiens, 1 h) is 10.4 µM. Besides, on Neutrophil Lipoxygenase, the “5-HETE, % of Control” value is 0 % of Control and the “LTB4, % of Control” value was 0 % of Control.

In the case of `CC1CN(C2=C(Cl)C(=O)c3ccccc3C2=O)CCN1` (centres unmarked) [Example 14, 2-chloro-3-(3-methyl-1-piperazinyl)-1,4-naphthalenedione], the IC50 in assay [1] (Homo sapiens, 1 h) stood at 3 µM.

On to `O=C1C(Cl)=C(N2CCN(CC(=O)N3CCCC3)CC2)C(=O)c2ccccc21` [Example 7, 1-[[4-(3-chloro-1,4-dihydro-1,4-dioxo-2-naphthalenyl)-1-piperazinyl]acetyl]pyrrolidine], for which the IC50 in assay [1] (Homo sapiens, 1 h) was determined as 14.9 µM.

For the compound `CN(CCN(C)C1=C(Cl)C(=O)c2ccccc2C1=O)Cc1ccccc1` [Example 2, 2-Chloro-3-[methyl[2-[methyl(phenylmethyl)amino]ethyl]amino]-1,4-naphthalenedione, hydrochloride], the IC50 in assay [1] (Homo sapiens, 1 h) was 4 µM.
